Activity calls are given as the source filed them. The rule behind the calls is not given here.
Tests used:
L3.6pl [1] = experiment: Effect on human L3.6pI cells assessed as rescue of Ant44-induced toxicity at 30 uM measured after 24 hrs; format: functional
[2] = Decrease in intracellular polyamine level in human L3.6pI cells assessed as Spd/Spm molar ratio at 30 uM measured after 24 hrs by HPLC analysis (reference value: 1.9); format: functional, L3.6pl
[3] = Decrease in intracellular polyamine level in human L3.6pI cells assessed as total polyamine level at 30 uM measured after 24 hrs in presence of DFMO by HPLC analysis (reference value: 20.7 nmol/mg); format: functional, L3.6pl
L3.6pl [4] = experiment: Cytotoxicity against human L3.6pl cells assessed as reduction in cell growth measured after 72 hrs by CellTiter96 one aqueous solution assay; format: cell-based; conditions: for IC50: Homo sapiens, L3.6pl; for MTC: human, l3.6pl, time 72 hrs
[5] = (§1) Cytotoxicity against murine L1210 cells assessed as reduction in cell growth measured after 72 hrs by CellTiter96 one aqueous solution assay; format: cell-based, Mus musculus; conditions: mouse, L1210 cells; time 72 hrs; read-out: MTC
L1210 = experiment: as §1; format: cell-based, Mus musculus; conditions: Mus musculus, L1210, 72 h
[6] = Decrease in intracellular polyamine level in human L3.6pI cells assessed as total polyamine level at 30 uM measured after 24 hrs by HPLC analysis (reference value: 35.9 nmol/mg); format: functional, L3.6pl
[7] = Decrease in intracellular polyamine level in human L3.6pI cells assessed as Spd/Spm molar ratio at 30 uM measured after 24 hrs in presence of DFMO by HPLC analysis (reference value: 0.2); format: functional, L3.6pl
[8] = Decrease in intracellular polyamine level in human L3.6pI cells assessed as total polyamine level at 30 uM measured after 24 hrs in presence of DFMO and Spd by HPLC analysis (reference value: 23.5 nmol/mg); format: functional, L3.6pl
L3.6pl [9] = experiment: Inhibition of spermidine uptake in human L3.6pI cells assessed as effect on cell growth measured after 72 hrs in presence of DFMO by CellTiter96 aqueous one solution assay; format: functional, cell-based
[10] = Decrease in intracellular polyamine level in human L3.6pI cells assessed as Spd/Spm molar ratio at 30 uM measured after 24 hrs in presence of DFMO and Spd by HPLC analysis (reference value: 0.4); format: functional, L3.6pl
[11] = Inhibition of polyamine transport system in human L3.6pI cells assessed as reduction in [3H] spermidine uptake by Lineweaver-Burk double reciprocal plot analysis; format: cell-based; conditions: l3.6pl
[12] = Inhibition of polyamine transport system in murine L1210 cells assessed as reduction in [3H] spermidine uptake by Lineweaver-Burk double reciprocal plot analysis; format: cell-based, Mus musculus
[13] = Inhibition of polyamine transport system in human L3.6pI cells assessed as reduction in [3H] putrescine uptake by Lineweaver-Burk double reciprocal plot analysis; format: cell-based; conditions: l3.6pl
[14] = Inhibition of polyamine transport system in human L3.6pI cells assessed as reduction in [3H] spermine uptake by Lineweaver-Burk double reciprocal plot analysis; format: cell-based; conditions: l3.6pl
L3.6pl [15] = experiment: Inhibition of [3H]spermidine uptake in human L3.6pI cells at 3 to 10 uM measured after 15 mins by scintillation counter method; format: functional, cell-based; conditions: dose 3-10 µM
L3.6pl [16] = experiment: Inhibition of [3H]spermine uptake in human L3.6pI cells at 3 to 10 uM measured after 15 mins by scintillation counter method; format: functional, cell-based; conditions: dose 3-10 µM
L3.6pl [17] = experiment: Inhibition of [3H]putresine uptake in human L3.6pI cells at up to 30 uM measured after 15 mins by scintillation counter method; format: functional, cell-based; conditions: dose microM <=30, time 15.0 min

In the case of Cl.Cl.Cl.Cl.Cl.NCCCCNCCCCN1CCNCCNCC1, the Activity (L3.6pl [1]) is reported as “Active”, the Ratio [2] is reported as 1.6 and the Activity [3] is reported as 17 nmol/mg. The IC50 (L3.6pl [4]) was 1170 µM, the MTC (L3.6pl [4]) was 500 µM and the MCC at 72 h [5] was greater than 100000 nM. The IC50 (L1210) was greater than 100 µM, the Activity [6] was 36.4 nmol/mg and the Ratio [7] was 0.1. The Activity [8] was 20.8 nmol/mg, the Activity (L3.6pl [9]) was “Active” and the Ratio [10] was 0.2. It also gave a Ki [11] of 3.3 µM, a Ki [12] of 1.9 µM and a Ki [13] of 11.6 µM. For the same compound, the Ki [14] was 1.3 µM, the inhibition (L3.6pl [15]) was “Active” and the inhibition (L3.6pl [16]) was “Active”. For the same compound, the inhibition (L3.6pl [17]) was “inactive”.
With C1CNCCCNCCCNC1 the IC50 (L3.6pl [4]) was 129 µM and the MTC (L3.6pl [4]) was 50 µM.
Compound C1CNCCNCCN1 has an IC50 (L3.6pl [4]) of 980 µM and an MTC (L3.6pl [4]) of 250 µM.
With Cl.Cl.Cl.Cl.Cl.NCCCCNCCCCN1CCCNCCCNCCC1 the IC50 (L3.6pl [4]) was 368 µM, the MTC (L3.6pl [4]) was 100 µM and the MCC at 72 h [5] was 1000 nM. For the same compound, the IC50 (L1210) was greater than 100 µM, the Activity (L3.6pl [9]) was “Active” and the Ki [11] was 3.7 µM. For the same compound, the Ki [12] was 7.1 µM.
In the case of CNCCCCNCCCCNCc1cc(CNCCCCNCCCCNC)cc(CNCCCCNCCCCNC)c1, the IC50 (L3.6pl [4]) is reported as 50 µM, the MTC (L3.6pl [4]) is reported as 3 µM and the Ki [11] is reported as 2.6 µM. For the same compound, the Ki [13] was 17.4 µM, the Ki [14] was 0.9 µM and the inhibition (L3.6pl [15]) was “Active”. The inhibition (L3.6pl [16]) was “Active”.

Source: ChEMBL document CHEMBL5029201, “Development of Polyamine Lassos as Polyamine Transport Inhibitors” (ACS Med Chem Lett, 2022)
